Data published in patent publication US20130005676A1 (UNIVERSITY OF ROCHESTER, priority 2009, published 2013).
Entries after “also recorded” stand apart in the source; their conditions may differ.

Columns and labels:
adenosine kinase [1] = molecular target: T1, adenosine kinase (Homo sapiens, UniProt P55263); conditions: cited from earlier work
[2] = tested on: enzymes involved in extracellular degradation of AMP; assay: Phosphate production (Malachite Green) in tissue sections from the Zusanli point; assay type: biochemical, mice; conditions: for rate of phosphate generation: 1 mM added as substrate, n=3; for dephosphorylation of AMP (phosphate production): inhibitor 500 μM, tissue in 1 mM AMP for 45 min
Rat Parotid Ecto-ATPase = conditions: cited from earlier work
Ecto-ATPase [3] = conditions: Crack et al.; cited from earlier work
Ecto-ATPase [4] = conditions: cited from earlier work
P2 receptors = conditions: cited from earlier work
adenosine kinase [5] = molecular target: T1, adenosine kinase; conditions: adenosine as substrate; cited from earlier work
[6] = tested on: mice with inflammatory pain (CFA); assay: Inflammatory pain (CFA in paw): mechanical allodynia (Von Frey) and thermal hyperalgesia; assay type: in vivo
From the text: Peripheral inflammation was induced by injection of Complete Freud Adjuvant (CFA, mixed with an equal amount of oil, […], Jackson labs) (Raghavendra et al., “Complete Freunds Adjuvant-Induced Peripheral Inflammation Evokes Glial Activation and Proinflammatory Cytokine Expression in the CNS,” Eur. J. Neurosci. 20:467-473 (2004), which is hereby incorporated by reference in its entirety). […] Neuropathic pain was induced by ligation of the sciatic nerve with 4.0 polypropylene suture in mice sedated with ketamine (60 mg/kg, i.p.) and xylazine (10 mg/kg, i.p.) (Bennett et al., “A Peripheral Mononeuropathy in Rat that Produces Disorders of Pain Sensation Like Those Seen in Man,” Pain 33:87-107 (1988); Martucci et al., “The Purinergic Antagonist PPADS Reduces Pain Related Behaviours and Interleukin-1 beta, Interleukin-6, iNOS and nNOS Overproduction in Central and Peripheral Nervous System After Peripheral Neuropathy in Mice,” Pain 137:81-95 (2008), which are hereby incorporated by reference in their entirety).
Mechanical allodynia was evaluated using repeated stimulations with a Von Frey filament exerting 0.02 grams of force onto the plantar surface (Colburn et al., “The Effect of Site and Type of Nerve Injury on Spinal Glial Activation and Neuropathic Pain Behavior,” Exp. Neurol. 157:289-304. (1999), which is hereby incorporated by reference in its entirety). The percentage of negative responses of a total of 10 trials was calculated for each foot. Thermal hyperalgesia was assessed using an Analgesymeter (Ugo Basile, Comerio, Italy) (Stein et al., “Intrinsic Mechanisms of Antinociception in Inflammation: Local Opioid Receptors and Beta-Endorphin,” J. Neurosci. 10:1292-1298 (1990), which is hereby incorporated by reference in its entirety). In short, a mobile radiant heat source was focused on the hind paw, and the paw withdrawal latencies were defined as the time taken by the mouse to remove its hind paw from the heat source (max 20 sec to avoid tissue damage). The paw withdrawal was repeated three times for each foot and the average calculated. To avoid conditioning to stimulation a 5 min rest period was interposed between each trial in both thermal and mechanical tests. Behavioral parameters were evaluated prior to intraplantar injection of CFA or nerve ligation (i.e. day 0), and again on day 3-4 in mice receiving the CFA injection, and at day 5-7 in mice with nerve ligation unless otherwise noted. Prior to injection of CCPA, saline, or acupuncture in the Zusanli point, the mice were placed in a restraining under light isoflurane anesthesia (˜1%). The total duration of anesthesia was ˜2 min and mice with inflammatory, neurogenic pain, and their controls were treated similarly. 2-chloro-N6-cyclopentyl-adenosine (CCPA, 0.1 mM, 20 μl) was injected in the Zusanli point ˜5 min before acupuncture. […] The needle was slowly rotated ˜2 time (˜20-30 sec) every 5 min for a total of 30 min during an acupuncture session. A microdialysis probe (MD-2211, Bioanalytical systems, West Lafayette, Ind.) was implanted 1-3 hrs prior to collection of microdialysis samples. The microdialysis probe was implanted in a distance of 0.4-0.6 mm from the Zusanli point. The microdialysis probe was perfused with Ringer's solution at a rate of 1 μl per minute. The microdialysates were collected on ice and the perfusate collected over a 30 min period (30 μl) was immediately frozen at −80° C. until HPLC analysis. Deoxycoformycin was administered in a dose of 50 mg/kg i.p. 30 min prior to acupuncture.

[7] = tested on: mice with neuropathic pain; assay: Neuropathic pain (sciatic nerve ligation): mechanical allodynia and thermal hyperalgesia; assay type: in vivo
Experimental: Peripheral inflammation was induced by injection of Complete Freud Adjuvant (CFA, mixed with an equal amount of oil, total volume 0.1 ml) in the plantar surface of the left hind paw of mice (25-30 g, Jackson labs) (Raghavendra et al., “Complete Freunds Adjuvant-Induced Peripheral Inflammation Evokes Glial Activation and Proinflammatory Cytokine Expression in the CNS,” Eur. J. Neurosci. 20:467-473 (2004), which is hereby incorporated by reference in its entirety). An equal amount of saline (0.1 ml) was injected in the right hind paw as control. Neuropathic pain was induced by ligation of the sciatic nerve with 4.0 polypropylene suture in mice sedated with ketamine (60 mg/kg, i.p.) and xylazine (10 mg/kg, i.p.) (Bennett et al., “A Peripheral Mononeuropathy in Rat that Produces Disorders of Pain Sensation Like Those Seen in Man,” Pain 33:87-107 (1988); Martucci et al., “The Purinergic Antagonist PPADS Reduces Pain Related Behaviours and Interleukin-1 beta, Interleukin-6, iNOS and nNOS Overproduction in Central and Peripheral Nervous System After Peripheral Neuropathy in Mice,” Pain 137:81-95 (2008), which are hereby incorporated by reference in their entirety).
Mechanical allodynia was evaluated using repeated stimulations with a Von Frey filament exerting 0.02 grams of force onto the plantar surface (Colburn et al., “The Effect of Site and Type of Nerve Injury on Spinal Glial Activation and Neuropathic Pain Behavior,” Exp. Neurol. 157:289-304. (1999), which is hereby incorporated by reference in its entirety). The percentage of negative responses of a total of 10 trials was calculated for each foot. Thermal hyperalgesia was assessed using an Analgesymeter (Ugo Basile, Comerio, Italy) (Stein et al., “Intrinsic Mechanisms of Antinociception in Inflammation: Local Opioid Receptors and Beta-Endorphin,” J. Neurosci. 10:1292-1298 (1990), which is hereby incorporated by reference in its entirety). In short, a mobile radiant heat source was focused on the hind paw, and the paw withdrawal latencies were defined as the time taken by the mouse to remove its hind paw from the heat source (max 20 sec to avoid tissue damage). The paw withdrawal was repeated three times for each foot and the average calculated. To avoid conditioning to stimulation a 5 min rest period was interposed between each trial in both thermal and mechanical tests. Behavioral parameters were evaluated prior to intraplantar injection of CFA or nerve ligation (i.e. day 0), and again on day 3-4 in mice receiving the CFA injection, and at day 5-7 in mice with nerve ligation unless otherwise noted. Prior to injection of CCPA, saline, or acupuncture in the Zusanli point, the mice were placed in a restraining under light isoflurane anesthesia (˜1%). […]

[8] = tested on: mice with inflammatory or neuropathic pain; assay: Statements covering both inflammatory and neuropathic pain models; assay type: in vivo; conditions: both pain models
Experimental: Peripheral inflammation was induced by injection of Complete Freud Adjuvant (CFA, mixed with an equal amount of oil, total volume 0.1 ml) in the plantar surface of the left hind paw of mice (25-30 g, Jackson labs) (Raghavendra et al., “Complete Freunds Adjuvant-Induced Peripheral Inflammation Evokes Glial Activation and Proinflammatory Cytokine Expression in the CNS,” Eur. J. Neurosci. 20:467-473 (2004), which is hereby incorporated by reference in its entirety). An equal amount of saline (0.1 ml) was injected in the right hind paw as control. […]
Mechanical allodynia was evaluated using repeated stimulations with a Von Frey filament exerting 0.02 grams of force onto the plantar surface (Colburn et al., “The Effect of Site and Type of Nerve Injury on Spinal Glial Activation and Neuropathic Pain Behavior,” Exp. Neurol. 157:289-304. (1999), which is hereby incorporated by reference in its entirety). The percentage of negative responses of a total of 10 trials was calculated for each foot. Thermal hyperalgesia was assessed using an Analgesymeter (Ugo Basile, Comerio, Italy) (Stein et al., “Intrinsic Mechanisms of Antinociception in Inflammation: Local Opioid Receptors and Beta-Endorphin,” J. Neurosci. 10:1292-1298 (1990), which is hereby incorporated by reference in its entirety). […] The paw withdrawal was repeated three times for each foot and the average calculated. […] Behavioral parameters were evaluated prior to intraplantar injection of CFA or nerve ligation (i.e. day 0), and again on day 3-4 in mice receiving the CFA injection, and at day 5-7 in mice with nerve ligation unless otherwise noted. […]

[9] = tested on: fEPSP in anterior cingulate cortex; assay: In vivo electrophysiology: fEPSP in left anterior cingulate cortex evoked by painful foot shock; design: species or system mice
Experimental: Mice were anaesthetized with 2-3% isoflurane, intubated, and artificially ventilated with a small animal ventilator (SAAR-830, CWE). Body temperature was monitored by a rectal probe and maintained at 37° C. by a heating blanket (BS4, Harvard Apparatus). A craniotomy (1-1.5 mm in diameter), centered 0.1 mm anterior to the bregma and 1.5 mm lateral from midline, was made over the left anterior cingulated cortex. A custom-made metal plate was glued to the skull with dental acrylic cement. The mice were for the remaining part of the experiment maintained at 2% isoflurane. LFP recordings were obtained from layer 4 of anterior cingulate cortex (ACC), 0.8 mm below the pial surface by a patch pipette (TW100E-4, WPI; outer diameter, 1.0 mm; inner diameter, 0.75 mm; tip diameter, 1-2 μm). […] Dura matter was kept intact. A custom-made bipolar electrode was inserted subcutaneously into the right hindpaw. High intensity stimulation (10 mA, 20 ms) were evoked every 120 sec. Lower stimulation intensities evoked either no or variable responses consistent with the idea that that ACC neurons respond primarily to painful stimuli Wei et al., “Potentiation of Sensory Responses in the Anterior Cingulate Cortex Following Digit Amputation in the Anaesthetised Rat,” J. Physiol. 532:823-833 (2001), which is hereby incorporated by reference in its entirety). The amplitude of the field EPSPs was measured using the pCLAMP 9.2 program (Axon Instruments, Inc., Foster City, Calif., USA).

adenosine transport = adenosine transport inhibitors; unit inferred; cited from earlier work

T1 sequence (P55263 whole entry, species assumed): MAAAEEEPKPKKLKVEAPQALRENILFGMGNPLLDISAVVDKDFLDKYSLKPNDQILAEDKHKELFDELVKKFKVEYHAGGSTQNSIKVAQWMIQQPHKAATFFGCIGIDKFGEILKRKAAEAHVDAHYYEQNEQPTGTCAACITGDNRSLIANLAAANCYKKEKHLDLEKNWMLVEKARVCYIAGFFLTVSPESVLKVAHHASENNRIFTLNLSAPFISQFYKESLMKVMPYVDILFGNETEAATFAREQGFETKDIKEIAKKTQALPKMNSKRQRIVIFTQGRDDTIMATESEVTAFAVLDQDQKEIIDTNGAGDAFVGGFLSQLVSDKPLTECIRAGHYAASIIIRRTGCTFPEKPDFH

Q: Which IC50 (adenosine kinase [1]) does the source give for `Nc1ncnc2c1c(Br)cn2[C@@H]1C[C@H](N)[C@@H](O)[C@H]1O` [A-286501, N7-((1′R,2′S,3′R,4′S)-2′,3′-dihydroxy-4′-amino-cyclopentyl)-4-amino-5-bromo-pyrrolo[2,3-a]pyrimidine] here?
A: 0.47 nM

Q: Which “rate of phosphate generation” value [2] does the source give for `Nc1ncnc2c1ncn2[C@@H]1O[C@H](COP(=O)(O)O)[C@@H](O)[C@H]1O` [AMP] here?
A: 0.043 ± 0.005 µM/mg/min

Q: Which IC50 (Rat Parotid Ecto-ATPase) does the source give for `CCN(CC)c1ncnc2c1ncn2[C@@H]1O[C@H](COP(=O)(O)OP(=O)(O)C(Br)(Br)P(=O)(O)O)[C@@H](O)[C@H]1O` [ARL67156] here?
A: 120000 nM

Q: What about the IC50 (Ecto-ATPase [3]) of the same molecule?
A: 4600 nM

Q: What about the Ki (Ecto-ATPase [4]) of the same molecule?
A: 255 nM

Q: What about the “effect on P2 receptors” value (P2 receptors) of the same molecule?
A: lack of or only has weak effect

Q: Which “rate of phosphate generation” value [2] does the source give for `Nc1ncnc2c1ncn2[C@@H]1O[C@H](COP(=O)(O)OP(=O)(O)OP(=O)(O)O)[C@@H](O)[C@H]1O` [ATP] here?
A: 0.428 ± 0.046 µM/mg/min

Q: With `[O]=[Mo](=[O])([O-])[O-]` [molybdate] as the molecule, how does the “dephosphorylation of AMP (phosphate production)” value [2] read?
A: partly suppressed dephosphorylation of AMP

Q: For `Nc1ncnc2c1ncn2[C@@H]1O[C@H](CO)[C@@H](O)[C@H]1O` [adenosine], which Km (adenosine kinase [5]) is on record?
A: ~0.02 µM

Q: Which “mechanical and thermal hypersensitivity / pain threshold in right foot” value ([6]; 0.1 mM, 20 μl injected in the left (contralateral) Zusanli point) does the source give for `OC[C@H]1O[C@@H](n2cnc3c(NC4CCCC4)nc(Cl)nc32)[C@H](O)[C@@H]1O` [CCPA, 2-chloro-N(6)-cyclopentyladenosine] here?
A: no effect; also recorded: did not alter the pain threshold

Q: What about the “mechanical and thermal pain in mice with deletion of A1 receptors” value ([6]; A1R KO mice) of the same molecule?
A: no clinical benefit

Q: What about the “paw withdrawal (thermal)” value ([6]; WT mice, after 0.1 mM, 20 μl in right Zusanli point, before: 3.7±0.3) of the same molecule?
A: 12.7 ± 1.5 s

Q: And the “touch sensitivity (percentage of negative responses of 10 Von Frey trials)” value ([6]; WT mice, after 0.1 mM, 20 μl in right Zusanli point, before: 38.0±2.5)?
A: 85.7±2.0%

Q: What about the “withdrawal of foot (thermal)” value ([7]; WT mice, after injection in Zusanli point, before: 2.9±0.3) of the same molecule?
A: 16.2 ± 2.4 s

Q: What about the “touch sensitivity (percentage of negative responses of 10 Von Frey trials)” value ([7]; WT mice, after injection in Zusanli point, before: 25.0±2.2) of the same molecule?
A: 83.3±4.9%

Q: What about the “mechanical and thermal hypersensitivity / pain threshold in right foot” value ([7]; injected in the left (contralateral) Zusanli point) of the same molecule?
A: no effect; also recorded: did not alter the pain threshold

Q: And the “course of the pain-relieving effect” value [8]?
A: transient

Q: And the “sensitivity to painful stimulation in the contralateral (left) leg” value ([8]; injection in right Zusanli point)?
A: did not alter sensitivity

Q: And the “fEPSP response in mice with deletion of A1 receptors” value ([9]; A1R KO mice)?
A: failed to respond

Q: And the fEPSP amplitude ([9]; WT, 0.1 mM 20 μl in right Zusanli point (ipsilateral), within 20 min, before ~0.65 mV)?
A: ~0.22 mV

Q: What about the “fEPSP amplitude, % of baseline values” ([9]; WT, ipsilateral injection, within 20 min) of the same molecule?
A: 26.6±11.0%

Q: What about the “effect on fEPSP” value ([9]; administered contralateral to the painful stimulation) of the same molecule?
A: no effect

Q: With `O=S(=O)(NCCNC/C=C/c1ccc(Br)cc1)c1cccc2cnccc12` [H-89] as the molecule, how does the “CFA-induced mechanical pain hypersensitivity, contralateral paw” value ([6]; injected in the Zusanli point) read?
A: not the contralateral paw

Q: And the “CFA-induced mechanical pain hypersensitivity, ipsilateral (right leg)” value ([6]; injected in the Zusanli point)?
A: transiently and significantly reduced; also recorded: reduced pain temporarily

Q: For `NC(=O)C1CN(CCCCC(c2ccc(F)cc2)c2ccc(F)cc2)CCN1CC(=O)Nc1c(Cl)cc(N)cc1Cl` (centres unmarked) [R75231, 2-(aminocarbonyl)-N-(4-amino-2,6-dichlorophenyl)-4-[5,5-bis(4-fluorophenyl)pentyl]-1-piperazineacetamide], which Ki (adenosine transport) is on record?
A: 0.1 nM

Q: For `Nc1ncnc2c1ncn2[C@@H]1O[C@H](COP(=O)(O)CP(=O)(O)O)[C@@H](O)[C@H]1O` [AOPCP], which “dephosphorylation of AMP (phosphate production)” value [2] is on record?
A: did not reduce dephosphorylation of AMP
